The values that follow come from ChEMBL document CHEMBL1143084, “Synthesis and structure based optimization of novel Akt inhibitors” (Bioorg Med Chem Lett, 2008).

In general, IC50 refers to the midpoint of a concentration-inhibition curve. A high value points to weaker potency in that assay. As a reminder, the inhibition in vivo is the percentage by which the read-out fell short of the control.

Test [1] has as its target T1, RAC-alpha serine/threonine-protein kinase (Homo sapiens, UniProt P31749). The test can be described thus: Inhibition of AKT1.
Test [2] concerns the target T1, RAC-alpha serine/threonine-protein kinase. The test can be described thus: Inhibition of AKT1 in human U87 cells after 2 hrs by ELISA. Format: cell-based, U-87MG ATCC. For orientation: An ELISA detects its analyte on a solid surface through an enzyme-linked reagent.
Test [3] in a line: Inhibition of PKA.
Test [4] in a line: Antitumor activity against human myristoylated Akt1-activated rat Rat-1a cells xenografted mouse assessed as tumor growth inhibition at 50 mg/kg, qd, po for 10 days. Format: functional. Conditions: 240 h. A general note: Xenograft models place foreign cells or tissue in a host animal.

T1 sequence (P31749 whole entry): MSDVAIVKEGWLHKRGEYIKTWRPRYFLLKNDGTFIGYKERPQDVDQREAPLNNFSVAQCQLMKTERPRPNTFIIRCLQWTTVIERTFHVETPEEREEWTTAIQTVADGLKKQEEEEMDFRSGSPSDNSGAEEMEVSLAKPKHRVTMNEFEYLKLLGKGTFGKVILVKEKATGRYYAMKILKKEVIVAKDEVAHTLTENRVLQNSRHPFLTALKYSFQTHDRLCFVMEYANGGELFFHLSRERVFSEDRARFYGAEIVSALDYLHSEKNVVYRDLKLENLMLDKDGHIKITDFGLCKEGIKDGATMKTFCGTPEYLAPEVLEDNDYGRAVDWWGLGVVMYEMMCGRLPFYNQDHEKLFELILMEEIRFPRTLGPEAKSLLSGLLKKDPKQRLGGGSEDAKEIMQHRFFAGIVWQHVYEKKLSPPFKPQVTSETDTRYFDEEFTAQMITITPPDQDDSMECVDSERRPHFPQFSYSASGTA

Turning to `Cc1c[nH]c2ncnc(N3CC4(CCNCC4)c4ccccc43)c12`, the figures for the IC50 in test [1] and in test [2] were 4.8 nM and 122 nM, respectively.

As to `Fc1ccc2c(c1)C1(CCNCC1)CN2c1ncnc2[nH]ccc12`, the IC50 turned out to be 3.1 nM in test [1] and 75 nM in test [2].

In the case of `Clc1ccc2c(c1)C1(CCNCC1)CN2c1ncnc2[nH]ccc12`, the half-maximal inhibitory concentration (IC50) in test [1] was 4.8 nM; in test [2], 51 nM.

For `Cn1ccc2c(Nc3ccccc3-c3nnc[nH]3)ncnc21`, the IC50 in test [1] is greater than 10000 nM.

As for `Cc1nnc(-c2ccc(Cl)cc2Nc2ncnc3[nH]ccc23)[nH]1`, the 50% inhibitory concentration (IC50) in test [1] is greater than 10000 nM.

As to `c1ccc(-c2nnc[nH]2)c(Nc2ncnc3[nH]ccc23)c1`, inhibition in test [1] was half-maximal at 210 nM (IC50).

In the case of `CN1CCC2(CC1)CN(c1ncnc3[nH]ccc13)c1ccccc12`, the 50% inhibitory concentration (IC50) in test [1] worked out at 12.7 nM; in test [2] it was 136 nM.

With `Cc1nnc(-c2cc(Cl)ccc2Nc2ncnc3[nH]ccc23)[nH]1`, 171 nM corresponded to half-maximal inhibition in test [1] (IC50).

`Cc1c[nH]c2ncnc(Nc3ccccc3-c3nnc[nH]3)c12`: 425 nM corresponded to half-maximal inhibition in test [1] (IC50).

As to `c1ccc(Cc2c[nH]c3ncnc(N4CC5(CCNCC5)c5ccccc54)c23)cc1`, the midpoint of inhibition in test [1], the IC50, lay at 1330 nM.

In the case of `Clc1c[nH]c2ncnc(N3CC4(CCNCC4)c4ccccc43)c12`, the IC50 in test [1] is 5.8 nM; in test [2], 64 nM.

Take `c1ccc2c(c1)N(c1ncnc3[nH]ccc13)CC21CCNCC1`: the values for the IC50 in test [1] and in test [2] were 5.3 nM and 96 nM, respectively.

As to `CS(=O)(=O)N1CCC2(CC1)CN(c1ncnc3[nH]ccc13)c1ccc(F)cc12`, in test [1], 3190 nM corresponded to half-maximal inhibition (IC50).

`CC(=O)N1CCC2(CC1)CN(c1ncnc3[nH]ccc13)c1ccc(F)cc12` yielded an IC50 in test [1] of 2790 nM.

`N#Cc1c[nH]c2ncnc(N3CC4(CCNCC4)c4ccccc43)c12`: the IC50 is 2.4 nM in test [1], 50 nM in test [2] and 3.6 nM in test [3]. Moreover, the inhibition in vivo at 50 mg/kg in test [4] was 68%.

`c1nc(N2CCc3nc[nH]c3C2)c2cc[nH]c2n1` had an IC50 in test [1] of 294 nM. This counts as sub-micromolar.

As for `Clc1c[nH]c2ncnc(Nc3ccccc3-c3nnc[nH]3)c12`, 318 nM corresponded to half-maximal inhibition in test [1] (IC50). The IC50 values of the last two compounds are within 1.5-fold of each other.
